Reference: US20090118276A1, “THIENOPYRIMIDINES, THIENOPYRIDINES, AND PYRROLOPYRIMIDINES AS B-RAF INHIBITORS” (priority 2007, published 2009)
pIC50: −log10 of the molar value. Where two headings read alike, the source gives them in different places.

Target: T1, Flag/GST-tagged recombinant human B-Raf (Homo sapiens, UniProt P15056)
T1 construct: Flag; GST; made in house; host or cells: Sf9 insect cells (B-Raf); E. coli (MEK1-GST)
Experiment: B-Raf Kinase to MEK1 ELISA
Format: biochemical
Description: B-Raf Kinase to MEK1 ELISA
B-Raf1 Kinase Assay Procedure: B-Raf-1 is used to phosphorylate GST-MEK1.
B-Raf Assay Stock Solutions:
1. Assay Dilution Buffer (ADB): 20 mM MOPS, pH 7.2, 25 mM β-glycerol phosphate, 5 mM EGTA, 1 mM sodium orthovanadate, 1 mM dithiothreitol, 0.01% Triton X-100.
2. Magnesium/ATP Cocktail: ADB solution (minus Triton X-100) plus 200 μM cold ATP and 40 mM magnesium chloride.
4. Active Kinase: Active B-Raf: used at 0.2 nM per assay point.
8. Anti pMEK Ab (Upstate)
9. Anti-rabbit Ab/Europium conjugate (Wallac)
1. Add 25 μl of ADB containing B-Raf and Mek per assay (i.e. per well of a 96 well plate)
2. Add 25 μl of 0.2 mM ATP and 40 mM magnesium chloride in Magnesium/ATP Cocktail.
3. Incubate for 45 minutes at RT with occasional shaking.
4. Transfer this mixture to an anti-GST Ab coated 96 well plate (Nunc Immunosorb plates coated o/n with a-GST. Plate freshly washed 3× with TBS-T before use.
5. Incubate o/n at 30° C. in cold room.
6. Wash 3× with TBST, add Anti-Phospho MEK1 (1:1000, dilution depends upon lot)
7. Incubate for 60 minutes at RT in a shaking incubator
8. Wash 3× with TBST, add Anti-rabbit Ab/Europium conjugate (Wallac) (1:500, dilution depends upon lot)
9. Incubate for 60 minutes at RT on a platform shaker.
10. Wash plate 3× with TBS-T
11. Add 100 μl of Wallac Delfia Enhancement Solution and shake for 10 minutes.
12. Read plates in Wallac Victor model Plate Reader.
13. Collect data analyze in Excel for single point and IC50 determinations.
The % inhibition was determined for each compound concentration.

[1] = phosphorylation of GST-MEK1 by B-Raf (0.2 nM), phospho-MEK1 antibody/Europium readout, compound concentrations from 1 μM to 3 nM or 0.1 μM to 300 pm in half log dilutions, read-out: IC50

T1 sequence (P15056 whole entry): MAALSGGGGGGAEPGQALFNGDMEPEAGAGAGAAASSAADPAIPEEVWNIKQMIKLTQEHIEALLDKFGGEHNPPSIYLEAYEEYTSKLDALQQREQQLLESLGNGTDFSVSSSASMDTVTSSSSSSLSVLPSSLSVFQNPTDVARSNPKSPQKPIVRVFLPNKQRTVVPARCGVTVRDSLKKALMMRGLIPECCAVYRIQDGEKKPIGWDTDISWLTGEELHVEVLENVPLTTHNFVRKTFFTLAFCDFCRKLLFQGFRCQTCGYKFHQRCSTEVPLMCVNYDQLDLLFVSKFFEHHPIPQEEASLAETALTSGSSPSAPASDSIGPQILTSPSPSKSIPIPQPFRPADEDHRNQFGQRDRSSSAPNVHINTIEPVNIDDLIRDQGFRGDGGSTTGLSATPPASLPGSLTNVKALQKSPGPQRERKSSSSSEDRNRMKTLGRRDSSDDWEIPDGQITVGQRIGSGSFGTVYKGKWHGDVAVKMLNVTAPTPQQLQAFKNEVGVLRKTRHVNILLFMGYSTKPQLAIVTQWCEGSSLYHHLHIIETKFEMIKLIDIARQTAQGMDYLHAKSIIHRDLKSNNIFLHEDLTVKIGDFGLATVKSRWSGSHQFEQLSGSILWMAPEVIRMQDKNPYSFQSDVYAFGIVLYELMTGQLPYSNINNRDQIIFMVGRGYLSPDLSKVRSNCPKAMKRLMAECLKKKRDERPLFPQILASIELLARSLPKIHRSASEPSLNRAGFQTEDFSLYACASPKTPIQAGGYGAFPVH

SMILES | pIC50 | pIC50 [1]
O=C(Nc1cccc(-c2ncnc3sc(-c4ccnc(NCCN5CCOCC5)c4)cc23)c1)c1cccc(C(F)(F)F)c1 [Compound 86, N-[3-(6-{2-[(2-morpholin-4-ylethyl)amino]pyridin-4-yl}thieno[2,3-d]pyrimidin-4-yl)phenyl]-3-(trifluoromethyl)benzamide] | 6.84 | 
N#Cc1cnc2cc(-c3ccncc3)sc2c1-c1cccc(NC(=O)c2cccc(C(F)(F)F)c2)c1 [Compound 5, N-[3-(6-cyano-2-pyridin-4-ylthieno[3,2-b]pyridin-7-yl)phenyl]-3-(trifluoromethyl)benzamide] |  | 5.23
O=C(Nc1cccc(-c2ncnc3sc(-c4ccncc4)cc23)c1)Nc1ccc(Cl)c(C(F)(F)F)c1 [Compound 39, N-[4-chloro-3-(trifluoromethyl)phenyl]-N′-[3-(6-pyridin-4-ylthieno[2,3-d]pyrimidin-4-yl)phenyl]urea] | 5.85 | 
O=C(Nc1cccc(-c2ncnc3sc(-c4ccncc4)cc23)c1)c1ccc(F)c(C(F)(F)F)c1 [Compound 38, 4-fluoro-N-[3-(6-pyridin-4-ylthieno[2,3-d]pyrimidin-4-yl)phenyl]-3-(trifluoromethyl)benzamide] | 6.52 | 
CC(=O)c1cccc(-c2cc3c(-c4cccc(NC(=O)c5cccc(C(F)(F)F)c5)c4)ncnc3s2)c1 [Compound 81, N-{3-[6-(3-acetylphenyl)thieno[2,3-d]pyrimidin-4-yl]phenyl}-3-(trifluoromethyl)benzamide] |  | 5.49
O=C(Nc1cccc(-c2ncnc3sc(-c4ccncc4)cc23)c1)Nc1ccc(F)c(C(F)(F)F)c1 [Compound 36, N-[4-fluoro-3-(trifluoromethyl)phenyl]-N′-[3-(6-pyridin-4-ylthieno[2,3-d]pyrimidin-4-yl)phenyl]urea] | 5.63 | 

The next lines start with the values.

pIC50 | pIC50 [1] | SMILES
6.36 |  | CN(C)Cc1ccc(-n2ccc3c(-c4cccc(NC(=O)c5cccc(C(F)(F)F)c5)c4)ncnc32)cc1 [Compound 111, N-[3-(7-{4-[(dimethylamino)methyl]phenyl}-7H-pyrrolo[2,3-d]pyrimidin-4-yl)phenyl]-3-(trifluoromethyl)benzamide]
 | 5.95 | O=C(Nc1cccc(-c2ncnc3sc(-c4cccnc4)cc23)c1)c1cccc(C(F)(F)F)c1 [Compound 75, N-[3-(6-pyridin-3-ylthieno[2,3-d]pyrimidin-4-yl)phenyl]-3-(trifluoromethyl)benzamide]
5.24 |  | COc1ccc(-n2ccc3c(-c4cccc(NC(=O)c5cccc(C(F)(F)F)c5)c4)ncnc32)cc1 [Compound 103, N-{3-[7-(4-methoxyphenyl)-7H-pyrrolo[2,3-d]pyrimidin-4-yl]phenyl}-3-(trifluoromethyl)benzamide]
5.61 |  | N#Cc1ccccc1Cn1ccc2c(-c3cccc(NC(=O)c4cccc(C(F)(F)F)c4)c3)ncnc21 [Compound 94, N-{3-[7-(2-cyanobenzyl)-7H-pyrrolo[2,3-d]pyrimidin-4-yl]phenyl}-3-(trifluoromethyl)benzamide]
